The values that follow come from US5543426A, “Use of certain 3,7-disubstituted indole compounds for treating depression or cognitive disorders” (priority 1990, dated 1996).

The subject of assay [1] is mice. The assay can be described thus: social stress model: plasma corticosterone rise induced by an aggressive, inaccessible male mouse. The note with it: p.o., 0.1 to 1 mg/kg. The class given is in vivo. The method, then: The compounds of the invention also reduce the plasma corticosterone rise induced in mice by the presence of an aggressive, but inaccessible male mouse. Compounds of the invention when given p.o. for 14 days at a dosage of from about 0.1 to 10 mg/kg restore the plasma corticosterone level to normal.
The Example compound is preferred.

Assay [2] relates to Benzold Jarisch Reflex. The assay can be described thus: blockade of the Benzold Jarisch Reflex (method of Fozard). The format is in vivo. The note with it: read-out: ID50, blockade of the Benzold Jarisch Reflex. The method, then: Pharmacol., 326, 36-44 (1984). Example compound has an ID50 of 70 μg/kg.
In assay [3] the target is T1, 5-HT3 binding sites (Mus musculus, UniProt P23979).
T1 construct: endogenous in cells; host or cells: N1E-115
Briefly: binding to 5-HT3 binding sites, N1E-115 cells (method of Hoyer and Neijt). An excerpt:
1. their potent and selective binding properties to 5-HT3 binding sites, e.g. to N1E-115 cells measured according to the method disclosed by D. Hoyer and H.C. Neijt, Mol. Pharm., 33, 303-309.

Assay [4] concerns gastric emptying in rats. Briefly: gastric emptying of glass spheres in rats. The class given is in vivo. The following applies: Rattus norvegicus, ip, given 15 min before 25 glass spheres, emptying measured 5, 10, 15 and 30 min after, read-out: ED50, promoting effect on gastric emptying. The method, then:
2. their promoting effect on gastric emptying in rats as indicated in standard in vivo tests when administered i.p. at doses of about 0.01 to about 1 mg/kg. The compounds to be tested are administered 15 min. before the administration of 25 glass spheres and gastric emptying is measured 5, 10, 15 and 30 min. after administration of the spheres. Example compound has an ED50 of 0.2 mg/kg i.p.

T1 sequence (P23979 24-489): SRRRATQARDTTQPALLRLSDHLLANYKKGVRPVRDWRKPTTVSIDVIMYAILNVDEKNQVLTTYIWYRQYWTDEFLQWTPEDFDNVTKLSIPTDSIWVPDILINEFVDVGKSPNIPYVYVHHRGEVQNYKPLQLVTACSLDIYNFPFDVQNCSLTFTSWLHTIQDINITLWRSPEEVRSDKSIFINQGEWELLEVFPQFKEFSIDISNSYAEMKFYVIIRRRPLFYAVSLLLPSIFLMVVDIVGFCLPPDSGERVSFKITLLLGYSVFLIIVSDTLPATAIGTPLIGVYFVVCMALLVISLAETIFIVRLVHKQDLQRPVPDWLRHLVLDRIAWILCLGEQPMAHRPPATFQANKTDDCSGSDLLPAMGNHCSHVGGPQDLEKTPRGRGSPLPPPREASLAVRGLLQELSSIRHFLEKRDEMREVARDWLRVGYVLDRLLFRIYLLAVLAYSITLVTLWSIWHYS

With `COc1cccc2c(C(=O)O[C@H]3C[C@H]4CC[C@@H](C3)N4C)c[nH]c12` [Example compound, 7-Methoxy-1H-indol-3-carboxylic acid-(1αH, 5αH)-8-methyl-8-aza-bicyclo3,2,1oct-3α-yl-ester], the “stress-induced corticosterone concentration in plasma” value in assay [1] is listed as “reduces the stress-induced corticosterone concentration in plasma”. Moreover, the ED50 in assay [2] came out at 0.07 mg/kg; in assay [4] it was 0.2 mg/kg. Binding in assay [3] was put at a Kd of 1.35 nM.
